Species on record: Rattus norvegicus
Assay: Open TG-GATES - Regimen: Single
Type: toxicity, organism-based, Sprague-Dawley
Set-up: regimen Single, gender Male, age 6 weeks
Settings: in vivo, po, 100 mg/kg, route gavage, dose level Low; for APTT / Bas / Eos / Fbg / Hb / Ht / Lym / MCH / MCHC / MCV / Mono / Neu / PT / Plat / RBC / Ret / WBC: tissue Blood; for KIDNEY_L / KIDNEY_R / KIDNEY_TOTAL: tissue Kidney; for LIVER: tissue Liver; for A/G / ALP / ALT / AST / BUN / CRE / Ca / Cl / DBIL / GLC / IP / K / LDH / Na / PL / RALB / TBIL / TC / TG / TP / gamma-GTP: tissue Plasma

Work on O=C(O)COc1nn(Cc2ccccc2)c2ccccc12 [BENDAZAC] yielded a TERMINAL_BW (3 h) of 207.2 g, an APTT (3 h) of 16.8 s and a Bas (3 h) of 0%. For the same compound, the Eos (3 h) was 1%, the Fbg (3 h) was 209.6 mg/dL and the Hb (3 h) was 14 g/dL. It also gave a Ht (3 h) of 42.1%, a Lym (3 h) of 80.8% and an MCH (3 h) of 21.8 pg. It also gave an MCHC (3 h) of 33.4%, an MCV (3 h) of 65.2 fL and a Mono (3 h) of 7.2%. The Neu (3 h) was 11.6%, the PT (3 h) was 11.3 s and the Plat (3 h) was 131.9 x10_4/uL. The RBC (3 h) was 644.8 x10_4/ul, the Ret (3 h) was 9.1% and the WBC (3 h) was 111.8 x10_2/uL. For the same compound, the KIDNEY_L (3 h) was 1 g, the KIDNEY_R (3 h) was 1 g and the KIDNEY_TOTAL (3 h) was 1.9 g. The LIVER (3 h) was 9.9 g, the A/G (3 h) was 2.1 and the ALP (3 h) was 1620.8 IU/L. The ALT (3 h) was 35.8 IU/L, the AST (3 h) was 68 IU/L and the BUN (3 h) was 12.8 mg/dL. The CRE (3 h) was 0.6 mg/dL, the Ca (3 h) was 10.9 mg/dL and the Cl (3 h) was 102 meq/L. It also gave a DBIL (3 h) of 0.008 mg/dL, a GLC (3 h) of 196.8 mg/dL and an IP (3 h) of 9.2 mg/dL. It also gave a K (3 h) of 4.6 meq/L, an LDH (3 h) of 93.2 IU/L and a Na (3 h) of 140.2 meq/L. It also gave a PL (3 h) of 130.2 mg/dL, an RALB (3 h) of 3.7 g/dL and a TBIL (3 h) of 1.4 mg/dL. The TC (3 h) was 73.6 mg/dL, the TG (3 h) was 56.2 mg/dL and the TP (3 h) was 5.4 g/dL. The gamma-GTP (3 h) was 1.4 IU/L, the TERMINAL_BW (6 h) was 207.8 g and the APTT (6 h) was 16.4 s. It also gave a Bas (6 h) of 0%, an Eos (6 h) of 1% and a Fbg (6 h) of 202.2 mg/dL. It also gave a Hb (6 h) of 13.9 g/dL, a Ht (6 h) of 41.6% and a Lym (6 h) of 79.4%. It also gave an MCH (6 h) of 21.6 pg, an MCHC (6 h) of 33.4% and an MCV (6 h) of 64.9 fL. The Mono (6 h) was 8.8%, the Neu (6 h) was 11.2% and the PT (6 h) was 12 s. It also gave a Plat (6 h) of 113.2 x10_4/uL, an RBC (6 h) of 641.8 x10_4/ul and a Ret (6 h) of 10.5%. It also gave a WBC (6 h) of 96.2 x10_2/uL, a KIDNEY_L (6 h) of 1 g and a KIDNEY_R (6 h) of 1 g. The KIDNEY_TOTAL (6 h) was 2 g, the LIVER (6 h) was 9.2 g and the A/G (6 h) was 2.3. The ALP (6 h) was 1175.6 IU/L, the ALT (6 h) was 35.2 IU/L and the AST (6 h) was 66 IU/L. The BUN (6 h) was 13 mg/dL, the CRE (6 h) was 0.6 mg/dL and the Ca (6 h) was 10.8 mg/dL. It also gave a Cl (6 h) of 103.4 meq/L, a DBIL (6 h) of 0.09 mg/dL and a GLC (6 h) of 183.8 mg/dL. The IP (6 h) was 10.7 mg/dL, the K (6 h) was 4.8 meq/L and the LDH (6 h) was 90.6 IU/L. It also gave a Na (6 h) of 140.2 meq/L, a PL (6 h) of 126 mg/dL and an RALB (6 h) of 3.7 g/dL. The TBIL (6 h) was 1.2 mg/dL, the TC (6 h) was 70.8 mg/dL and the TG (6 h) was 41.4 mg/dL. For the same compound, the TP (6 h) was 5.3 g/dL, the gamma-GTP (6 h) was 1.8 IU/L and the TERMINAL_BW (9 h) was 207.3 g. The APTT (9 h) was 17 s, the Bas (9 h) was 0% and the Eos (9 h) was 1%. It also gave a Fbg (9 h) of 218.2 mg/dL, a Hb (9 h) of 13.5 g/dL and a Ht (9 h) of 40.3%. It also gave a Lym (9 h) of 70%, an MCH (9 h) of 22 pg and an MCHC (9 h) of 33.6%. For the same compound, the MCV (9 h) was 65.4 fL, the Mono (9 h) was 8.8% and the Neu (9 h) was 20%. It also gave a PT (9 h) of 11.7 s, a Plat (9 h) of 125.1 x10_4/uL and an RBC (9 h) of 617 x10_4/ul. The Ret (9 h) was 8.5%, the WBC (9 h) was 105.7 x10_2/uL and the KIDNEY_L (9 h) was 0.9 g. For the same compound, the KIDNEY_R (9 h) was 1 g, the KIDNEY_TOTAL (9 h) was 1.9 g and the LIVER (9 h) was 8.6 g. The A/G (9 h) was 2.1, the ALP (9 h) was 1541.8 IU/L and the ALT (9 h) was 29 IU/L. For the same compound, the AST (9 h) was 58.2 IU/L, the BUN (9 h) was 11.6 mg/dL and the CRE (9 h) was 0.6 mg/dL. The Ca (9 h) was 10.6 mg/dL, the Cl (9 h) was 104.4 meq/L and the DBIL (9 h) was 0.034 mg/dL. The GLC (9 h) was 189 mg/dL, the IP (9 h) was 9.8 mg/dL and the K (9 h) was 4.4 meq/L. It also gave an LDH (9 h) of 90.2 IU/L, a Na (9 h) of 142.8 meq/L and a PL (9 h) of 127.2 mg/dL. The RALB (9 h) was 3.8 g/dL, the TBIL (9 h) was 1 mg/dL and the TC (9 h) was 75.4 mg/dL. It also gave a TG (9 h) of 34.2 mg/dL, a TP (9 h) of 5.6 g/dL and a gamma-GTP (9 h) of 1.2 IU/L. It also gave a TERMINAL_BW (24 h) of 225.9 g, an APTT (24 h) of 17.2 s and a Bas (24 h) of 0%. The Eos (24 h) was 1%, the Fbg (24 h) was 209.8 mg/dL and the Hb (24 h) was 13.4 g/dL. For the same compound, the Ht (24 h) was 40.2%, the Lym (24 h) was 73% and the MCH (24 h) was 21.6 pg. It also gave an MCHC (24 h) of 33.3%, an MCV (24 h) of 64.9 fL and a Mono (24 h) of 11.6%. The Neu (24 h) was 14.4%, the PT (24 h) was 11.8 s and the Plat (24 h) was 115.2 x10_4/uL. It also gave an RBC (24 h) of 619 x10_4/ul, a Ret (24 h) of 7.9% and a WBC (24 h) of 109.4 x10_2/uL. The KIDNEY_L (24 h) was 1.1 g, the KIDNEY_R (24 h) was 1.1 g and the KIDNEY_TOTAL (24 h) was 2.2 g. The LIVER (24 h) was 11.5 g, the A/G (24 h) was 2.1 and the ALP (24 h) was 1133.2 IU/L. It also gave an ALT (24 h) of 39.6 IU/L, an AST (24 h) of 62.8 IU/L and a BUN (24 h) of 16.8 mg/dL. It also gave a CRE (24 h) of 0.6 mg/dL, a Ca (24 h) of 11.3 mg/dL and a Cl (24 h) of 104.2 meq/L. It also gave a DBIL (24 h) of 0.024 mg/dL, a GLC (24 h) of 204.8 mg/dL and an IP (24 h) of 8 mg/dL. For the same compound, the K (24 h) was 4.6 meq/L, the LDH (24 h) was 127.8 IU/L and the Na (24 h) was 141.2 meq/L. The PL (24 h) was 147 mg/dL, the RALB (24 h) was 3.7 g/dL and the TBIL (24 h) was 0.4 mg/dL. It also gave a TC (24 h) of 74.2 mg/dL, a TG (24 h) of 86.4 mg/dL and a TP (24 h) of 5.5 g/dL. The gamma-GTP (24 h) was 1.2 IU/L.
